Data reported in patent US3950334A, “O-Alkyl-S-alkyl-O-[6-alkyl- or 6-halo-pyridazin-(3)-yl]-(thiono)thiol-phosphoric acid esters” (priority 1973, dated 1976).

Legend:
Toxicity test/peroral = details: in vivo, po; Albino rat, peroral, evaluation after 7 days
Method: Test animal: Albino rat (Rattus norvegicus)
To produce a suitable preparation of active compound, 3 parts by weight of active compound were mixed with 2.8 parts by weight of highly-dispersible silica and 4.2 parts by weight of talc. Suspensions which contained, in 1 ml of liquid, the amount of active compound to be applied per 100 g of animal weight, were prepared from the above active-compound concentrate, with a little added powdered vegetable gum, by grinding with water. Dosing was effected volumetrically after weighing the test animals. A steel knob-ended probe was used for oral administration. The evaluation was carried out in each case after the end of the above-mentioned time interval, calculated from the administration of the active compound.
The LD50 values (dose of active compound at which 50% of the treated animals were killed) were determined in the usual manner from the mortality figures of the doses, which were varied in geometrical progression.
The active compounds and LD50 values can be seen from the table which follows: […]

Musca domestica = assay: LT100 test for Diptera; assay type: in vivo; details: time for 100% destruction
Method: Test insects: Musca domestica
2 parts by weight of active compound were dissoled in 1,000 parts by volume of solvent. The solution so obtained was diluted with further solvent to the desired lower concentrations.
2.5 ml of the solution of active compound were pipetted into a Petri dish. On the bottom of the Petri dish there was a filter paper with a diameter of about 9.5 cm. The Petri dish remained uncovered until the solvent had completely evaporated. The amount of active compound per m^2 of filter paper varied with the concentration of the solution of active compound. About 25 test insects were then placed in the Petri dish and it was covered with a glass lid.
The condition of the test insects was continuously observed. The time which was necessary for 100% destruction was determined.
The test insects, the active compounds, the concentrations of the active compounds and the times at which there was 100% destruction can be seen from the following table: […]

[1] = test system: two-spotted spider mite (Tetranychus urticae); assay: Tetranychus test (resistant); assay type: in vivo; details: 48 h, after 2 days, resistant Tetranychus urticae on bean plants, read-out: Degree of destruction in % after 2 days; for mortality at 0.01 %: active compound concentration 0.01 %; for mortality at 0.1 %: active compound concentration 0.1 %
Method: Tetranychus test (resistant)
Solvent: 3 parts by weight of acetone
Emulsifier: 1 part by weight of alkylaryl polyglycol ether
To produce a suitable preparation of active compound, 1 part by weight of the active compound was mixed with the stated amount of solvent containing the stated amount of emulsifier and the concentrate was diluted with water to the desired concentration.
These bean plants were heavily infested with the two-spotted spider mite (Tetranychus urticae) in all stages of development.
After the specified periods of time, the effectiveness of the preparation of active compound was determined by counting the dead mites. The degree of destruction thus obtained was expressed as a percentage: 100% means that all the spider mites were killed, whereas 0% means that none of the spider mites were killed.
The active compounds, the concentrations of the active compounds, the evaluation times and the results can be seen from the following table: […]

warm-blooded animals = details: in words; known compounds; cited from earlier work
[2] = active compound concentration of the solution 0.02 %
[3] = active compound concentration of the solution 0.2 %

Compound	LD50 at 168 h (Toxicity test/peroral) [mg/kg]	LT100 in minutes (') (Musca domestica; [2]) [min]	LT100 in minutes (') (Musca domestica; [3]) [min]	mortality at 0.01 % [1] [%]	mortality at 0.1 % [1] [%]	toxicity to warm-blooded animals (warm-blooded animals)	LT100 in hours (Musca domestica; [2]) [h]
CCCSP(=S)(OCC)Oc1ccc(Cl)nn1 (stereo not drawn) [Compound 3]	100 to 250	165	55	–	–	–	–
CCCSP(=S)(OCC)Oc1ccc(C)nn1 (stereo not drawn) [Compound 2]	~50	–	–	–	–	–	–
CCOP(=S)(OCC)Oc1ccc(C)nn1 [Compound B, O,O-diethyl-O-[6-methyl-pyridazin-(3)-yl]-thionophosphoric acid ester]	0.5 to 1	–	135	20	100	high toxicity to warm-blooded animals	8
CCOP(=S)(OCC)Oc1ccc(Cl)nn1 [Compound A, O,O-diethyl-O-[6-chloro-pyridazin-(3)-yl]-thionophosphoric acid ester]	~5	–	–	–	–	high toxicity to warm-blooded animals	–
CCCSP(=S)(OCC)Oc1ccc(Br)nn1 (stereo not drawn) [Compound 1, O-ethyl-S-n-propyl-O-[6-bromo-pyridazin(3)-yl]-thionothiolphosphoric acid ester]	100 to 250	–	–	100	100	–	–
